Measured values published in paper PMC2749030, “New stably transfected bioluminescent cells expressing FLAG epitope-tagged estrogen receptors to study their chromatin recruitment” (BMC Biotechnology, 2009).

Key:
FLAG-ERβ = biological target: T1, FLAG-ERβ (Homo sapiens, UniProt Q92731); experiment: ERE-driven luciferase transactivation assay in HELN-Fβ cells; assay type: cell-based; settings: HELN-Fβ versus HELN-Fα cells, 16 hr
T1 construct: FLAG-ERβ (full length version of 530 amino acids); expressed in transfected cells; pSG5-puro plasmid
Experimental: (§1) Cells were incubated with compounds for 16 h. At the end of the incubation, effector containing medium was removed and replaced by 0.3 mM luciferin containing 6% DCC-FCS. At this concentration, luciferin diffuses into the cell and produces a stable luminescent signal. The 96-well plate was then introduced in a microplate luminometer (Microbeta, Wallac) and intact living cell luminescence measured for 2 s. EC50 values were evaluated using Graph-Pad Prism Statistics software (version 4.0; Graph-Pad Software Inc., San Diego, CA, USA).

FLAG-ERα = biological target: T2, FLAG-ERα (Homo sapiens, UniProt P03372); experiment: ERE-driven luciferase transactivation assay in HELN-Fα cells; assay type: cell-based; settings: 16 hr stimulation, luciferase activity, 100% = 10 nM E2
T2 construct: expressed in transfected cells; pSG5-puro plasmid
T2 sequence (P03372 1-595): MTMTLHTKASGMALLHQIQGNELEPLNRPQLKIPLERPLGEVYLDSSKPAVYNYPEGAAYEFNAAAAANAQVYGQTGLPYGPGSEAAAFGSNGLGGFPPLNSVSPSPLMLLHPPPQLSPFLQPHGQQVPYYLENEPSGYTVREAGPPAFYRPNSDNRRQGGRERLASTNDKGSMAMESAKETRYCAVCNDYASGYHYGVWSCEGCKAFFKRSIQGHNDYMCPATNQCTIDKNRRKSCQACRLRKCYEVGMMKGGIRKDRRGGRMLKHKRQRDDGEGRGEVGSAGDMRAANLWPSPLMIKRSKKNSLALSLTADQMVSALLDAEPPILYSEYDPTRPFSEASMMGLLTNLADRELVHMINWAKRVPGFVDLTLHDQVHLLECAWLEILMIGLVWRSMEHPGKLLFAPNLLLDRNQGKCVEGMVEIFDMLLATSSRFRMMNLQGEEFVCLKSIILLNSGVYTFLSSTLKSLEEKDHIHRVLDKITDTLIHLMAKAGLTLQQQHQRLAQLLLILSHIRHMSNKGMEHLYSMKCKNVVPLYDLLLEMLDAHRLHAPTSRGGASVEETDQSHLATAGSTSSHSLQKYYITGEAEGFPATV
Experimental: as §1

ERα = test system: ERα; set-up: method as in PMID 11708925, PMID 11150164; settings: ERα selective agonist; RBA = 100 for estradiol; cited from earlier work

T1 sequence (Q92731 whole entry): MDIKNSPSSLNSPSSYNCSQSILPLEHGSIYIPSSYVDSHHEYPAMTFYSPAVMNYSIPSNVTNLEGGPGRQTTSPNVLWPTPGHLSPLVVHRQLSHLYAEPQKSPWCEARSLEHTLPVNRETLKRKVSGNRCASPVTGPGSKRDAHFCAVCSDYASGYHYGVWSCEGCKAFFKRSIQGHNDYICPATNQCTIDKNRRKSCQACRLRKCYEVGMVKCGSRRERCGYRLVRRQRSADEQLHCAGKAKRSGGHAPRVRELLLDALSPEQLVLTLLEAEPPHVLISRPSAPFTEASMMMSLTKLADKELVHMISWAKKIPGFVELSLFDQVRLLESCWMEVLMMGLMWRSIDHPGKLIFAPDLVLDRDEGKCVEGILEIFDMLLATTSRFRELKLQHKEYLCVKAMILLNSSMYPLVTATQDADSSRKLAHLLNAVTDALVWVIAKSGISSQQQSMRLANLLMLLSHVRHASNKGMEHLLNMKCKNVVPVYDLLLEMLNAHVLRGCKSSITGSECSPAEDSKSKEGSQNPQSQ

For `CCCc1c(-c2ccc(O)cc2)nn(-c2ccc(O)cc2)c1-c1ccc(O)cc1` [PPT, Propylpyrazoletriol], the “activation of ERβ (in words)” value (FLAG-ERβ) is listed as “activated only ERα”, the EC50 (FLAG-ERα) is listed as 0.15 nM and the “relative binding activity (RBA)” value (ERα) is listed as 49.
